Assay results from patent US20020137929A1, “1 - (3-heterocyclylphenyl) isothiourea, -isourea, -guanidine and -amidine herbicidal agents” (Intellectual Property Department, BASF Aktiengesellschaft, priority 1998, published 2002).

Columns and labels:
[1] = system: IPOHE (Morningglory, Ivyleaf); test: Preemergence herbicidal evaluation; format: in vivo, Ipomoea hederacea; details: preemergence, rated 4-5 weeks after treatment, 0-9 scale
Method in brief: (§1)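 Seeds were mixed with potting soil and planted on about one inch of soil, then sprayed with test compound in aqueous acetone at about 0.0156 to 0.500 kg per hectare. Plants grew under standard greenhouse care and were visually rated 0-9 against untreated controls 4-5 weeks post-treatment.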

[2] = system: GLXMAW (Soybean, Williams); test: Preemergence herbicidal evaluation; format: in vivo, Glycine max, (L.) Merr. cv Williams; details: preemergence, rated 4-5 weeks after treatment, 0-9 scale
Method in brief: as §1

[3] = system: ABUTH (Velvetleaf); test: Preemergence herbicidal evaluation; format: in vivo, Abutilon theophrasti; details: preemergence, rated 4-5 weeks after treatment, 0-9 scale
Method in brief: as §1

[4] = system: TRZAWR (Wheat, Winter, cv Riband); test: Preemergence herbicidal evaluation; format: in vivo, Triticum aestivum; details: preemergence, rated 4-5 weeks after treatment, 0-9 scale
Method in brief: as §1

[5] = system: CHEAL (Lambsquarters, Common); test: Postemergence herbicidal evaluation; format: in vivo, Chenopodium album; details: postemergence
Method in brief: (§2)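 Visual 0-9 injury score (stand, vigor, malformation, size, chlorosis, appearance vs untreated) taken four to five weeks post-spray, averaged across repeat tests. Test plants about two weeks old; foliar spray of acetone/water (1:1) with 0.5% surfactant delivering ~0.0156-0.500 kg active/ha.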

[6] = system: SETVI (Foxtail, Green); test: Postemergence herbicidal evaluation; format: in vivo, Setaria viridis; details: postemergence
Method in brief: as §2

[7] = system: CYPIR (Rice Flatsedge); test: Postemergence weed control under flooded paddy conditions; format: in vivo, Cyperus iria; details: postemergence weeds, rated 3 to 4 weeks after treatment
Method in brief: (§3)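 Containers holding 3–5 cm weeds and rice at 1.5–2.5 leaves are flooded to 1.5–3 cm above soil. Compound in 50/50 v/v aqueous/acetone is then added directly to the water, about 0.0313–0.500 kg/ha. Plants are kept in the greenhouse and rated 0–9 visually at 3–4 weeks.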

[8] = system: ZEAMX (Corn, Field); test: Postemergence herbicidal evaluation; format: in vivo, Zea mays; details: postemergence
Method in brief: as §2

[9] = system: ABUTH (Velvetleaf); test: Postemergence herbicidal evaluation; format: in vivo, Abutilon theophrasti; details: postemergence
Method in brief: as §2

[10] = system: ORYSAT (Rice, Tebonnet); test: Postemergence herbicidal evaluation; format: in vivo, Oryza sativa, (L.) Tebonnet; details: postemergence
Method in brief: as §2

[11] = system: CASOB (Sicklepod); test: Preemergence herbicidal evaluation; format: in vivo, Cassia obtusifolia; details: preemergence, rated 4-5 weeks after treatment, 0-9 scale
Method in brief: as §1

[12] = system: ECHCG (Barnyardgrass); test: Postemergence herbicidal evaluation; format: in vivo, Echinochloa crus-galli; details: postemergence
Method in brief: as §2

[13] = system: IPOHE (Morningglory, Ivyleaf); test: Postemergence herbicidal evaluation; format: in vivo, Ipomoea hederacea; details: postemergence
Method in brief: as §2

[14] = system: CHEAL (Lambsquarters, Common); test: Preemergence herbicidal evaluation; format: in vivo, Chenopodium album; details: preemergence, rated 4-5 weeks after treatment, 0-9 scale
Method in brief: as §1

[15] = system: CYPSE (Flatsedge); test: Postemergence weed control under flooded paddy conditions; format: in vivo, Cyperus serotinus; details: postemergence weeds, rated 3 to 4 weeks after treatment
Method in brief: as §3

[16] = system: ZEAMX (Corn, Field); test: Preemergence herbicidal evaluation; format: in vivo, Zea mays; details: preemergence, rated 4-5 weeks after treatment, 0-9 scale
Method in brief: as §1

[17] = system: ECHCG (Barnyardgrass); test: Preemergence herbicidal evaluation; format: in vivo, Echinochloa crus-galli; details: preemergence, rated 4-5 weeks after treatment, 0-9 scale
Method in brief: as §1

SMILES: CN1C(=O)C(CC(=O)NS(C)(=O)=O)SC1=Nc1cc(-n2c(=O)cc(C(F)(F)F)n(C)c2=O)c(F)cc1Cl (stereo not drawn) [Compound 97, 2-{{2-Chloro-5-[3,6-dihydro-3-methyl-2,6-dioxo-4-(trifluoromethyl)-1(2H)-pyrimidinyl]-4-fluorophenyl}imino}-3-methyl-N-(methylsulfonyl)-4-oxo-5-thiazolidineacetamide]
- IPOHE rating ([1]; 0.1250 kg/ha): 1.0
- IPOHE rating ([1]; 0.2500 kg/ha): 9.0
- IPOHE rating ([1]; 0.5000 kg/ha): 9.0
- GLXMAW rating ([2]; 0.1250 kg/ha): 0.0
- GLXMAW rating ([2]; 0.2500 kg/ha): 0.0
- GLXMAW rating ([2]; 0.5000 kg/ha): 3.0
- ABUTH rating ([3]; 0.1250 kg/ha): 4.0
- ABUTH rating ([3]; 0.2500 kg/ha): 9.0
- ABUTH rating ([3]; 0.5000 kg/ha): 9.0
- TRZAWR rating ([4]; 0.1250 kg/ha): 0.0
- TRZAWR rating ([4]; 0.2500 kg/ha): 1.0
- TRZAWR rating ([4]; 0.5000 kg/ha): 2.0
- CHEAL herbicidal rating ([5]; rate 0.0156 kg/ha): 0.0
- CHEAL herbicidal rating ([5]; rate 0.0313 kg/ha): 1.0
- CHEAL herbicidal rating ([5]; rate 0.0625 kg/ha): 4.0
- CHEAL herbicidal rating ([5]; rate 0.1250 kg/ha): 7.0
- SETVI herbicidal rating ([6]; rate 0.0156 kg/ha): 1.0
- SETVI herbicidal rating ([6]; rate 0.0313 kg/ha): 6.0
- SETVI herbicidal rating ([6]; rate 0.0625 kg/ha): 9.0
- SETVI herbicidal rating ([6]; rate 0.1250 kg/ha): 9.0
- Herbicidal rating CYPIR ([7]; Rate 0.0313 kg/ha): 0.0
- Herbicidal rating CYPIR ([7]; Rate 0.0625 kg/ha): 0.0
- Herbicidal rating CYPIR ([7]; Rate 0.1250 kg/ha): 3.0
- Herbicidal rating CYPIR ([7]; Rate 0.2500 kg/ha): 4.0
- ZEAMX herbicidal rating ([8]; rate 0.0156 kg/ha): 3.5
- ZEAMX herbicidal rating ([8]; rate 0.0313 kg/ha): 4.0
- ZEAMX herbicidal rating ([8]; rate 0.0625 kg/ha): 4.0
- ZEAMX herbicidal rating ([8]; rate 0.1250 kg/ha): 5.0
- ABUTH herbicidal rating ([9]; rate 0.0156 kg/ha): 4.0
- ABUTH herbicidal rating ([9]; rate 0.0313 kg/ha): 4.0
- ABUTH herbicidal rating ([9]; rate 0.0625 kg/ha): 7.0
- ABUTH herbicidal rating ([9]; rate 0.1250 kg/ha): 9.0
- ORYSAT herbicidal rating ([10]; rate 0.0156 kg/ha): 0.5
- ORYSAT herbicidal rating ([10]; rate 0.0313 kg/ha): 0.5
- ORYSAT herbicidal rating ([10]; rate 0.0625 kg/ha): 2.5
- ORYSAT herbicidal rating ([10]; rate 0.1250 kg/ha): 3.0
- CASOB rating ([11]; 0.1250 kg/ha): 0.0
- CASOB rating ([11]; 0.2500 kg/ha): 1.0
- CASOB rating ([11]; 0.5000 kg/ha): 3.0
- ECHCG herbicidal rating ([12]; rate 0.0156 kg/ha): 1.0
- ECHCG herbicidal rating ([12]; rate 0.0313 kg/ha): 1.0
- ECHCG herbicidal rating ([12]; rate 0.0625 kg/ha): 3.0
- ECHCG herbicidal rating ([12]; rate 0.1250 kg/ha): 6.0
- IPOHE herbicidal rating ([13]; rate 0.0156 kg/ha): 7.0
- IPOHE herbicidal rating ([13]; rate 0.0313 kg/ha): 9.0
- IPOHE herbicidal rating ([13]; rate 0.0625 kg/ha): 9.0
- IPOHE herbicidal rating ([13]; rate 0.1250 kg/ha): 9.0
- CHEAL rating ([14]; 0.1250 kg/ha): 7.0
- CHEAL rating ([14]; 0.2500 kg/ha): 9.0
- CHEAL rating ([14]; 0.5000 kg/ha): 9.0
- Herbicidal rating CYPSE ([15]; Rate 0.0313 kg/ha): 0.0
- Herbicidal rating CYPSE ([15]; Rate 0.0625 kg/ha): 0.0
- Herbicidal rating CYPSE ([15]; Rate 0.1250 kg/ha): 0.0
- Herbicidal rating CYPSE ([15]; Rate 0.2500 kg/ha): 3.0
- ZEAMX rating ([16]; 0.1250 kg/ha): 0.0
- ZEAMX rating ([16]; 0.2500 kg/ha): 0.0
- ZEAMX rating ([16]; 0.5000 kg/ha): 4.0
- ECHCG rating ([17]; 0.1250 kg/ha): 0.0
- ECHCG rating ([17]; 0.2500 kg/ha): 0.0
- ECHCG rating ([17]; 0.5000 kg/ha): 0.0
